# Molecular target: T1, Kv2.1 α subunit (Rattus norvegicus, UniProt P15387)
# T1 construct: gene Kcnb1; homomeric channel
# T1 sequence (P15387 1-857): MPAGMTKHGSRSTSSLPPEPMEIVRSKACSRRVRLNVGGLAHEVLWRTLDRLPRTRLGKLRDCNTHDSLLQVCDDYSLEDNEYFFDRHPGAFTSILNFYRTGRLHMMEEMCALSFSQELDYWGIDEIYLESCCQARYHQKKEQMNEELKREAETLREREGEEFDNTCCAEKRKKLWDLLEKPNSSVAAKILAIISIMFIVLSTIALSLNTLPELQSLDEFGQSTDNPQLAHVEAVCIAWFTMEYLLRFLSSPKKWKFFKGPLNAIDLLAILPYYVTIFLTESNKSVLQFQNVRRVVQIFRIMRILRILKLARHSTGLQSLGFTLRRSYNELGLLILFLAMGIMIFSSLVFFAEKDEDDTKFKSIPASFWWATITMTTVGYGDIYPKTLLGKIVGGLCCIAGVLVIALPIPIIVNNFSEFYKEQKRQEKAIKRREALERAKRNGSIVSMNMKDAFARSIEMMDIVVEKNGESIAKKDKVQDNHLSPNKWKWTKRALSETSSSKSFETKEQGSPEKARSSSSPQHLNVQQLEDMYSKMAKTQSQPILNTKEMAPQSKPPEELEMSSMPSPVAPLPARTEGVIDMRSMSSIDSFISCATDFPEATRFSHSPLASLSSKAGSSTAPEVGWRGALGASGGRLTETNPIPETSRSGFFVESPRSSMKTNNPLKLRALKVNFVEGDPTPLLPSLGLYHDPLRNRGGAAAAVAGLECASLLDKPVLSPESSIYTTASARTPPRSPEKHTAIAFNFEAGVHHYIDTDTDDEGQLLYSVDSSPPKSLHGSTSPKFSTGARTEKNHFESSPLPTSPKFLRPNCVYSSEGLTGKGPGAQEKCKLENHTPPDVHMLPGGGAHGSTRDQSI
# Assay: whole-cell patch clamp, tail current amplitude
# Format: cell-based
compound,measurement,value
C=C[C@@]1(C)CC(=O)[C@]2(O)[C@@]3(C)[C@@H](O)CCC(C)(C)[C@@H]3[C@H](O)[C@H](OC(C)=O)[C@@]2(C)O1 [forskolin],IC50,31.6 µM
